Like-named read-outs stand apart in the source and are kept apart here.
Experiments:
leishmanial tubulin [1] = conditions: reference 8; cited from earlier work
[2] = test system: L. donovani promastigotes; assay: Growth inhibition of L. donovani promastigotes; format: cell-based, Leishmania donovani
[3] = test system: L. donovani axenic amastigotes; assay: Growth inhibition of L. donovani axenic amastigotes (three-day tetrazolium dye assay); format: cell-based, Leishmania donovani; conditions: for IC50: Leishmania donovani
Protocol: (§1) 2000, 110, 223-236, incorporated herein by reference.^14
(§2) Determination of the drug susceptibility of parasites and mammalian cells. The susceptibility of Leishmania donovani amastigote-like parasites (WHO designation: MHOM/SD/62/1S-CL2D) to growth inhibition by compounds of interest was measured in a three-day assay using the tetrazolium dye-based CellTiter reagent (Promega) (Werbovetz, K., Brendle, J., and Sackett, D. (1999) Mol. Biochem. Parasitol. 98, 53-65., and Havens, C., Bryant, N., Asher, L., Lamoreaux, L., Perfetto, S., Brendle, J., and Werbovetz, K. (2000) Mol. Biochem. Parasitol. 110, 223-236). The amastigote medium used in this assay is based on the medium mentioned by Joshi et al. (Joshi, M., Dwyer, D. M., and Nakhasi, H. L. (1993) Mol. Biochem. Parasitol. 58, 345-354). Prior to addition of fetal bovine serum to a final concentration of 20%, this amastigote medium contains 15 mM KCl, 115 mM KH2PO4, 10 mM K2HPO4, 0.5 mM MgSO4, 24 mM NaHCO3, a 1-concentration of RPMI-1640 vitamins and amino acids, 2.0 mM L-glutamine, 22 mM D-glucose, 100 units/mL penicillin, 100 ∝g/ml streptomycin, 0.1 mM adenosine, 1 ∝g/mL folate, and 25 mM MES (pH 5.5). Compounds were tested for their activity against bloodstream-form Trypanosoma brucei brucei (MITat 1.2, variant 221) axenically-cultured in HMI-9 medium , H., and Hirumi, K. (1989) J. Parasitol. 75, 985-989.) following the procedure of Ellis et al. (Ellis, J., Fish, W., Sileghem, M., and McOdimba, F. (1993) Vet. Parasitol. 50, 143-149.) with some modifications. Briefly, 100 μL of late log phase parasites were incubated in 96-well plates (Costar) at an initial concentration of 10^5 cells/ml with or without test compounds at 37° C. in a humidified 5% CO2 atmosphere for 72 hours. Twenty-five μL of a 5 mg/mL solution of MTT (prepared in phosphate buffered saline and filter sterilized) was then added to each well and plates were re-incubated at 37° C. as before for 2 h. One hundred ∝L of 20% SDS lysis buffer (prepared in 50% aqueous DMF) was added to each well and plates were incubated as before for an additional 3-4 h. Optical densities were then measured at 570 nm using SpectraMax Plus microplate reader. […] Assessment of the in vitro sensitivity of T. b. brucei Lab 110 EATRO and P. falciparum strains to compounds was performed by methods described in Donkor et al. (Donkor, I., Assefa, H., Rattendi, D., Lane, S., Vargas, M., Goldberg, B., and Bacchi, C. (2001) Eur. J. Med. Chem. 36, 531-538.) and Guan et al. (Guan, J., Kyle, D., Gerena, L., Zhang, Q., Milhous, W., and Lin, A. (2002) J. Med. Chem. 45, 2741-2748).

leishmanial tubulin [4] = format: biochemical; conditions: mean ± SD of at least one duplicate measurement, SD of controls 27.6%
Protocol: as §1
Briefly, the tubulin assembly assays are performed as follows. […] The change in turbidity was measured at 351 nm using the SpectraMax Plus microplate reader immediately after GTP addition at 30° C. (for leishmanial tubulin) or 37° C. (for brain tubulin).

[5] = test system: Trypanosoma brucei brucei (MITat 1.2, variant 221); assay: microbe, parasite or virus in culture; format: cell-based; conditions: Trypanosoma brucei, read-out: IC50, T. b. brucei variant 221
Protocol: as §2

[6] = test system: T. b. brucei Lab 110 EATRO; assay: In vitro sensitivity of T. b. brucei Lab 110 EATRO (Coulter counter, two-day); format: cell-based, Trypanosoma brucei brucei; conditions: Trypanosoma brucei, 48 h, read-out: IC50, T. b. brucei Lab 110 EATRO
Protocol: as §2

P. falciparum D6 strain = assay: In vitro sensitivity of P. falciparum D6 strain (tritiated hypoxanthine uptake); format: cell-based, Plasmodium falciparum; conditions: Plasmodium falciparum, D6, read-out: IC50, P. falciparum D6 strain
Protocol: as §2

P. falciparum W2 strain = assay: microbe, parasite or virus in culture; format: cell-based, Plasmodium falciparum; conditions: Plasmodium falciparum, W2, read-out: IC50, P. falciparum W2 strain
Protocol: as §2

J774 murine macrophages = assay: Toxicity to J774 macrophages (three-day CellTiter assay); format: cell-based
Protocol: (§3) The toxicity of compounds to J774 murine macrophages and PC3 […] cells was measured in a three-day assay using the CellTiter reagent. […] Macrophages were allowed to adhere for 24 hours, then the medium was removed and replaced with serial dilutions of the test compounds in the DMEM medium mentioned above without phenol red. After 72 hr incubation with the test compounds at 37° C. in a humidified 5% CO2 incubator, cell viability was determined using the CellTiter reagent by adding 20 μL of assay solution to each well. After a 6-7 h incubation at 37° C. to allow for color development, the absorbance of each well at 490 nm was measured in a SpectraMax Pro microplate reader (Molecular Devices). The toxicity of compounds to PC3 cells was assessed in the same manner as for the macrophages, except that the medium used was RPMI 1640 supplemented with 10% heat inactivated fetal calf serum, 2.0 mM L-glutamine, 50 units/mL penicillin, and 50 ∝g/mL streptomycin. IC50 values for the J774 and PC3 assays were determined with the software program SoftMax Pro as described earlier.

PC3 cells = assay: Toxicity to PC3 cells (three-day CellTiter assay); format: cell-based; conditions: Homo sapiens, PC-3, 72 h, read-out: IC50, PC3 prostate
Protocol: as §3

[7] = test system: L. donovani promastigotes; assay: Flow cytometry of DNA content in L. donovani promastigotes; format: cell-based, Leishmania donovani; conditions: 10 μM compound
Protocol: Flow cytometry and fluorescence cell sorting. Parasites or J774 macrophages were incubated in T25 flasks (3-5 mL final volume) in the appropriate media described earlier for 24-48 h. Cultures contained 1% DMSO (v/v) in the presence or absence of test compounds. Cells were counted using a hemacytometer, then were centrifuged (1000×·g for parasites, 200×·g for macrophages) at 4° C. for 10 min (parasites) or 5 min (macrophages). Cells were resuspended in 150 μL of PBS (0.01 M phosphate, 0.137 M NaCl, and 2.7 mM KCl), then 350 μL of ice-cold methanol was added and the samples were fixed at −20° C. for 2-3 h. Cells were centrifuged as before and resuspended in PBS containing 0.1% TX-100, 5 μg/mL RNase A, and 10 μg/mL propidium iodide for 20-30 min. Centrifugation was repeated, then cells were resuspended in PBS to a final concentration of 5×10^5-10^6/mL and stored at 4° C. until analysis. Fluorescence cell sorting was conducted on a Beckman Coulter Elite flow cytometer.

[8] = literature reference 4; cited from earlier work

O=[N+]([O-])c1cc(C(F)(F)F)cc([N+](=O)[O-])c1Cl [Chloralin, chloralin]
inhibition of leishmanial tubulin polymerization (in words, earlier publication) (leishmanial tubulin [1]): inhibitor of leishmanial tubulin polymerization

CCCN(CCC)c1c([N+](=O)[O-])cc(S(=O)(=O)Nc2ccccc2)cc1[N+](=O)[O-] [Compound 20, N1-Phenyl-3,5-dinitro-N4,N4-di-n-propylsulfonilamide]
IC50 ([2]; Leishmania donovani, read-out: IC50 vs. L. donovani promastigotes): 14.7 ± 1 µM | fold more active than 3 against promastigotes ([2]; relative to oryzalin 3): 3.0 fold | fold more active than 3 against L. donovani axenic amastigotes [3]: 13.4 fold | IC50 ([3]; 72 h, read-out: IC50, L. donovani axenic amastigotes): 5.03 ± 1.08 µM | IC50 ([3]; read-out: IC50 vs. L. donovani amastigotes): 5.41 ± 0.89 µM | % Inhibition of Leishmanial Tubulin Assembly at 20 μM Compound (leishmanial tubulin [4]): 108 ± 7% | IC50 ([5]; 72 h): 0.412 ± 0.044 µM | IC50 [5]: 0.4 µM | IC50 [6]: 0.58 µM | IC50 (P. falciparum D6 strain): 11 µM | IC50 (P. falciparum W2 strain): 13 µM | IC50 (J774 murine macrophages; Mus musculus, J774, read-out: IC50, J774 macrophages): 28.3 ± 3.8 µM | IC50 (J774 murine macrophages; read-out: IC50, J774 macrophages): 30.8 ± 1.9 µM | IC50 (PC3 cells): 41.3 ± 8.5 µM | effect on cell cycle / DNA content by flow cytometry ([7]; 48 hour treatment of promastigotes): appearance of parasites containing approximately 4×, 8×, and 16× more DNA | parasite cell density over 48 hours ([7]; control cultures doubled approximately three times): remained at the same cell density | melting point: 120 °C

CCCN(CCC)c1c([N+](=O)[O-])cc(C(F)(F)F)cc1[N+](=O)[O-] [Trifluralin, trifluralin]
aqueous solubility (in words) [8]: low solubility

From patent publication US20050227982A1, “Antileishmanial dinitroaniline sulfanomides with activity against parasite tubulin” (priority 2002, published 2005)
